Literature values as cited in patent publication US20250319118A1, “Prophylaxis and Treatment of Degraded Cartilage” (PhrixionLS, LLC, priority 2022, published 2025).

Assays:
osteoarthritis [1] = conditions: viscosupplementation
osteoarthritis [2] = conditions: for Limitations: clinical outcomes / OA symptoms: clinical trials, osteoarthritis

Molecule: hyaluronic acid [HA]
- Benefit compared to placebo (osteoarthritis [1]): no significant benefit compared to placebo

Molecule: C[S+](CC[C@H](N)C(=O)[O-])C[C@H]1O[C@@H](n2cnc3c(N)ncnc32)[C@H](O)[C@@H]1O (some centres unmarked) [S-adenosyl-methionine (SAMe), S-adenosyl-methionine]
- Limitations: clinical outcomes / OA symptoms (osteoarthritis [2]; literature summary): Shown to improve OA symptoms,

Molecule: Bromelain
- Limitations: clinical outcomes / OA symptoms (osteoarthritis [2]; literature summary): Mixed results in clinical trials,

Molecule: C[C@H]1CN(C(=O)CC[C@@]2(C3CC3)NC(=O)NC2=O)CCN1c1cc(F)cc(F)c1 [GLPG1972, reference compound]
- Efficacy versus placebo (osteoarthritis [2]; Phase-2 study): No significant difference versus

B1: Sprifermin: Drug (Trial), investigated as disease-modifier for cartilage damage (protein, UniProt O76093 28-207, looked up)
Fibroblast growth factor 18: EENVDFRIHVENQTRARDDVSRKQLRLYQLYSRTSGKHIQVLGRRISARGEDGDKYAQLLVETDTFGSQVRIKGKETEFYLCMNRKGKLVGKPDGTSKECVFIEKVLENNYTALMSAKYSGWYVGFTKKGRPRKGPKTRENQQDVHFMKRYPKGQPELQKPFKYTTVTKRSRRIRPTHPA
- Limitations: effect on cartilage (regeneration / protection) (osteoarthritis [2]; clinical and preclinical data, literature summary): Demonstrated positive effects
